One may read the IC50 as the point on the concentration scale where inhibition reaches its midpoint.

The source of these data is article PMC11831592, “Repurposing Linezolid in Conjunction with Histone Deacetylase Inhibitor Access in the Realm of Glioblastoma Therapies” (Journal of Medicinal Chemistry, 2025).

Data set [1] deals with A172-R TMZ-resistant GBM cell line. The data set is described as follows: MTT cytotoxicity assay, A172-R. The format is cell-based. The following applies: Homo sapiens, 72 h. Here is the method: (§1) We utilized linezolid as the structural foundation to confirm the cytotoxicity of linezolid-conjugated functional domains against glioblastoma (GBM). We combined it with the binding structures of anti-histone deacetylases (HDACs) (denoted as compounds 1–5 and 11–14), antitubulin (compound 6), anticyclooxygenase (COX) (compound 7), and anti-heat shock protein 90 (Hsp90) (compounds 8–10). These constructs were then administered to TMZ-resistant GBM cell lines A172R and PT#3R at concentrations ranging from 0 to 80 μM over 72 h. The cytotoxic effects of these compounds were assessed using the MTT assay (Table 1 and Supporting Information IV). […] Given the remarkable cytotoxicity of compound 1 on both A172-R and PT#3-R TMZ-resistant cells, this study subsequently focused on compound 1 for further in-depth investigation and mechanistic exploration. To validate that the cytotoxic effect of compound 1 on GBM is not attributed to linezolid alone, we separately treated the TMZ-resistant GBM cell line PT#3-R with compound 1 and linezolid. […] This confirms that the cytotoxicity of compound 1 against GBM is primarily attributable to the inhibitory structure of linezolid-conjugated HDAC (Figure 2A). Furthermore, we compared the cytotoxic effects of compound 1 on various wild-type brain tumor cell lines, including U87MG, PT#3, LN229 GBM cells, and CT-2A mouse astrocyte cell line as well as TMZ-resistant variants cell lines, including U87MG-R, PT#3-R, CT-2A-R, and T98G (MGMT-positive). […] Additionally, we further confirmed the efficacy of compound 1 in GBM treatment.
MTT assay was employed to evaluate the cytotoxicity of the synthesized compound against resistant GBM cells. The MTT (3-(4,5-dimethylthiazol-2-yl)-2,5-diphenyltetrazolium bromide, catalog no. AM0818-0005) powder was purchased from BIONOVAS (Ontario, Canada). The MTT was prepared at 10 mg/mL stock with ultrapure water and then stored at −20 °C. All cells were seeded 2.5 × 10^4 per well in the 24-well plate for 24 h, followed by treating at different concentrations of compounds for 72 h. Before the experiment, the MTT stock was 10-fold diluted with the culture medium and then incubated with cells for 30 min. After the incubation, the MTT medium was discarded and added 300 μL of dimethyl sulfoxide (DMSO, cat. no. D2650, Sigma-Aldrich, MO, USA) to dissolve the cells. Finally, 100 μL of the mixture was transferred to measure the OD 595 nm absorbance.

For the next data set, the system named is Primary Mouse Neuron. As to the kind of experiment: CCK8 assay, primary culture neurons. In kind it is cell-based. The protocol:
The human glioblastoma cell lines U87MG (HTB-14), T98G (CRL-1690), and A172 (CRL-1620) were provided by the American Type Culture Collection (Manassas, VA, USA). The patient-derived cell line PT#3 was purified under the approval of the Institutional Review Board of Taipei Medical University (TMU) (No. 201006011). The murine astrocytoma cell line CT-2A (SCC194) was purchased from Merch Millipore (MA, USA). TMZ-resistant cell lines were established as described previously.[40] All cell lines were cultured in Dulbecco’s modified Eagle’s medium basal medium (Cat# 10-013-CM, CORNING, MA, USA), supplemented with 10% fetal bovine serum (Cat# 12676029, Thermo Fisher Scientific, MA, USA), 100 units/mL penicillin, and 100 μg/mL streptomycin (Cat# 15140122, Thermo Fisher Scientific) at 37 °C in the environment of 95% air and 5% carbon dioxide and maintained resistant characteristic with […] of TMZ (Cat# HY-17364, MedChemExpress, NJ, USA). Primary cultured astrocytes and neurons were derived from E17 embryonic mice. […]
Cell viability and drug cytotoxicity were determined by a CCK-8 kit (Cell Counting Kit-8, CK04-13, MD, USA) (CCK8, C0005, Target Molecule Corp., MA, USA) reagent. […] Finally, the OD was 450 nm absorbance and calculated for cell viability.
Background: Formazan colour is commonly taken as a measure of viable cells.

In data set [2] the test system is GBM, TMZ-resistant GBM, and patient-derived TMZ-resistant GBM cells. The data set is described as follows: CCK8 assay, GBM cell panel (range given). In kind it is cell-based. Particulars: read-out: IC50 values, range over GBM cells. The protocol: (§2) Cell viability and drug cytotoxicity were determined by a CCK-8 kit (Cell Counting Kit-8, CK04-13, MD, USA) (CCK8, C0005, Target Molecule Corp., MA, USA) reagent. Cells were seeded 2 × 10^3 per well in the 96-well plate for 24 h, followed by treating at different concentrations of compounds for 72 h. Before the experiment, CCK8 was 10-fold diluted with the culture medium and then incubated with cells for 30 min. Finally, the OD was 450 nm absorbance and calculated for cell viability.

In the next data set the test system is U87MG. The data set is described as follows: CCK8 cell proliferation assay, U87MG. In kind it is cell-based. Particulars: Homo sapiens, U-87 MG, CCK8, 72 h. The protocol:
as §2

The subject of data set [3] is DNA HR repair in U87MG cells. The data set is described as follows: Homologous recombination repair assay. The format is cell-based, human. Particulars: increasing drug concentrations. The protocol:
For the DNA, HR repair assay continued to use our previous study.[30] U87MG cells were cotransfected at a 2:1 ratio using the […] reporter and DsRed-Monomer plasmids. Cells were harvested 2 days after transfection and subjected to flow cytometry analysis by a Guava EasyCyte System. Only DsRed-positive cells were analyzed for HR and NHEJ efficiencies to circumvent possible differences in transfection efficiencies. Data were analyzed to reveal the percentage of GFP-positive cells relative to those of DsRed-positive cells. Data were set to 1% of the background level of GFP-positive cells in every internal control.

The target in another data set is T1, HDAC2 (Homo sapiens, UniProt Q92769).
T1 construct: purchased Reaction Biology Corporation, Malvern, PA (contract assay service)
T1 sequence (Q92769 whole entry): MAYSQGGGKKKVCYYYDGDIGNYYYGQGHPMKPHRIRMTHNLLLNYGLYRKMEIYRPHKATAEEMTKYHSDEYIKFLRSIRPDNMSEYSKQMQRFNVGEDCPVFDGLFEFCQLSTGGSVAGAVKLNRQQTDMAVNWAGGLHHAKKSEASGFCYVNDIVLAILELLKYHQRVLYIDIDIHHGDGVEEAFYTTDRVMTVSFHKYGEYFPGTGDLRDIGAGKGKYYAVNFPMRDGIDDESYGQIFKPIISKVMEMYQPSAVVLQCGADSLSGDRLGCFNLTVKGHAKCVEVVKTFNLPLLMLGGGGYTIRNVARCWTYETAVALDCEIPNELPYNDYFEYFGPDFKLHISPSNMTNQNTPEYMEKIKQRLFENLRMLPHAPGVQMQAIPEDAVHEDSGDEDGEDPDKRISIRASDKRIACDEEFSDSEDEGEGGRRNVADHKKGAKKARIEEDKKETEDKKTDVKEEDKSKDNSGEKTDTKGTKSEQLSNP
As to the kind of experiment: HDAC enzyme inhibition assay, HDAC2. The following applies: 10-dose, 3-fold serial dilution starting at 10 μM. In kind it is biochemical. The protocol: Enzyme inhibition assays were performed by the Reaction Biology Corporation, Malvern, PA (http://www.reactionbiology.com).

The next data set deals with PT#3-R. The data set is described as follows: CCK8 cell proliferation assay, PT#3-R. In kind it is cell-based. Particulars: Homo sapiens, CCK8, 72 h. The protocol: as §2
In data set [4] the test system is TMZ-resistant GBM cell lines A172R and PT#3R. The data set is described as follows: MTT cytotoxicity assay, TMZ-resistant GBM lines (statement in words). The format is cell-based. Particulars: 0 to 80 μM, 72 h. The protocol: as §1
MTT assay was employed to evaluate the cytotoxicity of the synthesized compound against resistant GBM cells. The MTT (3-(4,5-dimethylthiazol-2-yl)-2,5-diphenyltetrazolium bromide, catalog no. AM0818-0005) powder was purchased from BIONOVAS (Ontario, Canada). The MTT was prepared at 10 mg/mL stock with ultrapure water and then stored at −20 °C. […] Finally, 100 μL of the mixture was transferred to measure the OD 595 nm absorbance.

Another data set relates to PT#3. The data set is described as follows: CCK8 cell proliferation assay, PT#3. The format is cell-based. The following applies: Homo sapiens; PT#3, CCK8, 72 h. Here is the method:
as §2

Turning to `O=C(/C=C/c1ccc(CNC[C@H]2CN(c3ccc(N4CCOCC4)c(F)c3)C(=O)O2)cc1)NO` [compound 1, (S,E)-3-(4-((((3-(3-Fluoro-4-morpholinophenyl)-2-oxooxazolidin-5-yl)methyl)ami-no)methyl)phenyl)-N-hydroxyacrylamide], the 50% inhibitory concentration (IC50) is 17.4 ± 1.21 µM in [1]; 65.9 ± 4 µM with Primary Mouse Neuron; 10.3 to 30.6 µM in data set [2]; 13.5 ± 0.54 µM in the data set on U87MG; 2.81 µM on HDAC2; 11.1 ± 0.57 µM with PT#3-R. This compound also gave a 50% inhibitory concentration (IC50) with PT#3 of 10.3 ± 0.52 µM. Moreover, in data set [3], the “DNA HR repair capability” value is “substantial decrease in DNA HR repair capability”. Further, in data set [4], the “cytotoxicity in TMZ-resistant GBM” value is “exhibited the capacity to induce cytotoxicity”.
